Source: PMC12724174, “Biodegradation of the endocrine-disrupting compound bisphenol F by Sphingobium yanoikuyae DN12” (Applied and Environmental Microbiology, 2025)

Experiments:
BpfC (BpfC1) = system: T1, BpfC (BpfC1); assay: HPLC of residual substrate; Michaelis-Menten nonlinear fit; type: biochemical, Sphingobium yanoikuyae; settings: apparent; optimal pH 8.5 and 40°C; 0.02 mM FAD, 0.4 mM nicotinamide adenine dinucleotide phosphate in standard assay; aerobic
T1 construct: full length, 402 aa (1,209 bp), C-terminal His6 (pET-29a), E. coli BL21(DE3), Ni-NTA; N-terminus MSGNDR and C-terminus FAESVQ-LEHHHHHH by primers

BpfAB (BpfA1B1) = system: T2, BpfAB (BpfA1B1); assay: as above; type: biochemical, Sphingobium yanoikuyae; settings: apparent; optimal pH 8.0 and 55°C; 0.1 mM FAD, 0.2 mM phenazine methosulfate in standard assay; BpfB mostly apo
T2 construct: gene bpfA1; bpfA1B1 co-expressed from pET-29a in E. coli BL21(DE3), N-terminal His6 on BpfA (MHHHHHHPLSVAE by primer), Ni-NTA; total 663 aa; BpfB mostly apo (little heme); C-terminus of BpfB VEPKP by primer; with Cytochrome c BpfB

SMILES	Km (BpfC (BpfC1))	Km (BpfAB (BpfA1B1))
O=C(c1ccc(O)cc1)c1ccc(O)cc1 [DHBP, 4,4'-dihydroxybenzophenone]	21.3 ± 2.88 µM	
Oc1ccc(Cc2ccc(O)cc2)cc1 [BPF, Bisphenol F]		19.3 ± 6.66 µM
